Several values for one entry are separate records, joined by “and”; a condition that tells them apart may be missing. Equal values may be shown once.
Legend:
[1] = target: CYP2D6 (Homo sapiens (Human), UniProt P10635); test: biochemical; format: biochemical; details: human recombinant CYP2D6, AMMC substrate; read-out: CYP450 IC50 2D6
Method: (§1) The CYP450 inhibition assays utilized microsomes from insect cells expressing human recombinant individual cDNA-expressed CYP isoforms 3A4 and 2D6, as well as the fluorogenic probe that produces fluorescent metabolite. Standard inhibitors were co-incubated with fluorogenic substrates and their inhibitory potential (IC50) was determined. Assay conditions in terms of CYP450 protein concentration and time of incubation were standardized, enzyme kinetics parameters of each fluorescent probe substrate were estimated and IC50 values of inhibitors were determined and validated on different days to check reproducibility.
(§2) A 100 mM sodium phosphate buffer was prepared and adjusted to pH 7.4. In a separate falcon tube, a 2× enzyme/substrate (E/S) solution was prepared in phosphate buffer. The final concentration of CYP2D6 (CORNING®) and […] (AMMC) was 10 nM and 4 μM, and CYP3A4 (CORNING®) and 7-benzyloxy-4-(trifluoromethyl) coumarin (BFC) was 20 nM and 40 μM, respectively. In a separate falcon tube, a 2×NADPH regenerating system (NRS) was prepared in phosphate buffer. The final concentration for each component in the assay was as follows: • CYP2D6 assay: 0.008 mM NADPH, 3.3 mM glucose 6-phosphate, 0.4 U of glucose-6-phosphate dehydrogenase per mL
(§3) Both enzymatic assays were conducted in a 96-well microtiter plate (Black, CORNING® COSTAR®) with a final volume of 100 μL. Preparation of the plate began with the addition of 74 μL of the E/S in the first well, and 50 μL to all subsequent wells (from 2-11). The test compounds (1 μL) were dissolved in the first well to give the first row a final volume of 75 μL. A 1:3 serial dilution of the test compound was conducted by removing 25 μL from the first well and diluting it with the second and so forth until the tenth row. Final concentrations yielded a range from 200 μM-0.01 μM. Well no. 11 contained no inhibitor, and well no. 12 contained no enzyme. Both were used as controls for background fluorescence. The plate was incubated for 30 min at 37° C. After incubation, the reaction was initiated by the addition of 50 μL of the 2×NRS to each well.
Immediately (within 1 min) the fluorescence was measured using a microplate reader (BIOTEK® Synergy Neo2). CYP2D6 was monitored at Ex/Em=410/460 nm, and CYP3A4 monitored at Ex/Em=410/538 nm in kinetic mode that scanned every 5 min for 60 mins. Data was exported and analyzed using Graph Pad Prism 7. […] The IC50 value was derived after the data was fitted on a 10-point curve using a four-parameter logistic regression model.

[2] = target: CYP3A4 (Homo sapiens (Human), UniProt P08684); test: Fluorometric CYP450 enzyme inhibition assay, CYP3A4; format: biochemical; details: human recombinant CYP3A4, BFC substrate; read-out: CYP450 IC50 3A4
Chain of CYP3A4 (P08684 whole entry): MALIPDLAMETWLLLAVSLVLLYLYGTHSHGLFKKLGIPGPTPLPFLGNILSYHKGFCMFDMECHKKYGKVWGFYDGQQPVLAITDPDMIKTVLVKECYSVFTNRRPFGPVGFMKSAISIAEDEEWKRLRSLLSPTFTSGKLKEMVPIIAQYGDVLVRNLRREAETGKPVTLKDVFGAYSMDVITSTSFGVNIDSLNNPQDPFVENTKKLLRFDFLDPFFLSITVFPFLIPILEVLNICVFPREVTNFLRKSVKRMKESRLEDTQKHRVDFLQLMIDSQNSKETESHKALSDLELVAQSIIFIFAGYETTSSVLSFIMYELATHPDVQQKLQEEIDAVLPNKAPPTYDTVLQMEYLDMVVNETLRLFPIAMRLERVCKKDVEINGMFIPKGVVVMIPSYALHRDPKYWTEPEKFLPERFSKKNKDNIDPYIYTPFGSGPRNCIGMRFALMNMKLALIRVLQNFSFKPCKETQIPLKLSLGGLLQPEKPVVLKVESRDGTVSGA
Method: as §1, §2
as §3, with “The test compounds (1 μL) were dissolved in the first well to give the first row a final volume of 75 μL.” left out
Immediately (within 1 min) the fluorescence was measured using a microplate reader (BIOTEK® Synergy Neo2). […] Data was exported and analyzed using Graph Pad Prism 7. […] The IC50 value was derived after the data was fitted on a 10-point curve using a four-parameter logistic regression model.

[3] = Metabolic stability assay in human liver microsomes (HLM); format: in vitro ADME; details: NADPH, sampled 0-120 min; for HLM t1/2: 3 μM test compound; for half-life at 3 µM: pH 7.4, 3 μM test compound, read-out: HLM t1/2
Method: The LC-MS/MS analysis was performed using Agilent 1260 Infinity II HPLC, coupled with an Agilent G6460 triple quadrupole mass spectrometer (Agilent Technologies, USA). All the data were acquired employing Agilent 6460 Quantitative Analysis data processing software.
Reverse-phase HPLC separation for each compound was achieved either on an Agilent Porshell 120 EC-C8 column (2.1×50 mm, 2.7 μm), or on an Agilent Zorbax XDB C18 column (2.1×50 mm, 3.5 μm) with a mobile phase composed of methanol-water-formic acid or acetonitrile-water-formic acid (0.1%) at a flow rate of 0.5 mL/min (changes for some compounds). Each method was developed in the presence of an internal standard (ISTD) d5-7-ethoxy coumarin. The column temperature was maintained at 40° C. for most of the samples otherwise noted. The detection was operated in the Agilent JetStream electrospray positive ionization using multiple reaction monitoring mode (MRM).
Other MS conditions were as follows: dwell time 100 ms; gas flow 10 L/min; nebulizer pressure 45 psi; delta EMV 200 V; fragmentor voltage and collision energy for individual compounds vary.
Test compounds were dissolved in 100% DMSO or 100% MeOH to make 10 mM stock solutions. Verapamil (Sigma Aldrich) aided as a positive control and was dissolved in 100% DMSO to make 10 mM stock solutions. The 10 mM stock solution of test and control compounds were further diluted in potassium phosphate buffer (100 mM, pH 7.4) to 500 μM to ensure the organic solvent content was <0.2%. Human liver microsomes (HLMs) were purchased from Xenotech at 20 mg/mL. NADPH (Sigma Aldrich) 10 mM stocks were prepared in deionized water.
The HLM assay was prepared in a 1.5 mL Eppendorf tube with a final volume of 1100 μL for duplicate runs. Each reaction contained phosphate buffer (928.4 μL), liver microsomes (55 μL), and test compound resulting in a final concentration of 3 μM (6.6 μL of 500 μM). The reaction was initiated with 110 μL of 10 mM NADPH. Aliquots (100 μL) were removed in duplicate at 0, 15, 30, 60, 120 min (for prodrug compounds) and 0, 5, 10, 15, 30 min (verapamil, positive control compound) time intervals and quenched in cold […] of 100% methanol which contained internal standard (ISTD: d5-7-ethoxy coumarin 4 μM). Before centrifugation each of the aliquoted tubes were vortexed to make sure compounds were in the solution. The aliquots were centrifuged at 12,000 g for 5 min and the supernatant removed and placed in an LC-MS vial. Each time point was assessed using LC-MS and the area, based on the extracted ion, was integrated with respect to the ISTD. Positive controls were conducted at a final volume of 550 μL to give each time point in a single run. A no-NADPH negative control with test or control compound was performed in a single run (150 μL) at the longest time point. Controls were processed and analyzed like the test compounds. Each time point was run in duplicates followed by in-between blank washes to avoid the carryover and to equilibrate the column.

[4] = test system: HEK293 cells; details: 50% cytotoxic concentration; italicized results: absence of human serum albumin
[5] = test system: HIV; test: microbe, parasite or virus in culture; format: cell-based; details: pseudoviral particles, HEK293 cells; italicized results: absence of human serum albumin; read-out: HIV IC50

Chain of CYP2D6 (P10635 whole entry, canonical isoform): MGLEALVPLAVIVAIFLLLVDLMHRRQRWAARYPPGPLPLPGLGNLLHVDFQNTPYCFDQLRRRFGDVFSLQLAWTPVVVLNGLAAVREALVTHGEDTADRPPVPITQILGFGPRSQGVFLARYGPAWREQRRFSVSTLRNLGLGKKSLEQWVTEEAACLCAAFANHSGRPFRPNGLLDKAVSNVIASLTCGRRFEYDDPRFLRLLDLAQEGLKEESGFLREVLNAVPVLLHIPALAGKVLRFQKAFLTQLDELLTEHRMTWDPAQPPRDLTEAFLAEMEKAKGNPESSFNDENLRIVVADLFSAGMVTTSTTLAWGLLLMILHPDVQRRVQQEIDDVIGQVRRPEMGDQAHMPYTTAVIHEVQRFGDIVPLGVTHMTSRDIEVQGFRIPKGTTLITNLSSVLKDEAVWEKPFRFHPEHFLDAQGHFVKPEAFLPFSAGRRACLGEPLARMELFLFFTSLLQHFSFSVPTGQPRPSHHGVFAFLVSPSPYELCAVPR

SMILES	IC50 [1] [µM]	IC50 [2] [µM]	HLM t1/2 [3] [h]	CC50 [4] [µM]	half-life at 3 µM [3] [h]	IC50 [5]
C#CCCCCCCCCCCCCCCOCCCOP(=O)(O)CO[C@H](C)Cn1cnc2c(N)ncnc21.N [MD-5-72, Ammonium 3-(hexadec-15-yn-1-yloxy)propyl (R)-(((1-(6-amino-9H-purin-9-yl)propan-2-yl)oxy)methyl)phosphonate]	> 20	> 20	>2	> 100		
C#CCCCCCCCCCCCCCCCCOP(=O)(O)CO[C@H](C)Cn1cnc2c(N)ncnc21.N [Compound B1-1-024, Ammonium octadec-17-yn-1-yl ((((R)-1-(6-amino-9H-purin-9-yl)propan-2-yl)oxy)methyl)phosphonate]	2.39	18.7	>2	> 100		
C#CCCCCCCCCCCCCCOP(=O)(O)CO[C@H](C)Cn1cnc2c(N)ncnc21.N [EJM-8-006, Ammonium pentadec-14-yn-1-yl (R)-(((1-(6-amino-9H-purin-9-yl)propan-2-yl)oxy)methyl)phosphonate]	84.9	54.8	1.57	> 100		
C[C@H](Cn1cnc2c(N)ncnc21)OCP(=O)(O)OCCCCCCCCCCCCCCCCCC#CC(F)(F)F.N [NP-PD-102, Ammonium [(1R)-2-(6-aminopurin-9-yl)-1-methyl-ethoxy]methyl-(20,20,20-trifluoroicos-18-ynoxy)phosphinate]	> 20	> 20	>2	78.7		
C#CCCCCCCCCCCCCCCCCCCOP(=O)(O)CO[C@H](C)Cn1cnc2c(N)ncnc21.N [Compound B1-1-065, Ammonium icos-19-yn-1-yl (R)-(((1-(6-amino-9H-purin-9-yl)propan-2-yl)oxy)methyl)phosphonate]	21.9	> 50	>2	99.5		
C#CCCCCCCCCCCCCCCCCSCCCOP(=O)(O)CO[C@H](C)Cn1cnc2c(N)ncnc21.N [BI-1-057, Ammonium 3-(octadec-17-yn-1-ylthio)propyl (R)-(((1-(6-amino-9H-purin-9-yl)propan-2-yl)oxy)methyl)phosphonate]	20.2	37			> 2	
C[C@H](Cn1cnc2c(N)ncnc21)OCP(=O)(O)OCCCCCCCCCCCCCCCCCCCC(F)(F)F.N [NP-PD-105, ammonium [(1R)-2-(6-aminopurin-9-yl)-1-methyl-ethoxy]methyl-(20,20,20-trifluoroicosoxy)phosphinate]	> 20	> 20	>2	72.4		
C[C@H](Cn1cnc2c(N)ncnc21)OCP(=O)(O)OCCCSCCCCCCCCCCCSc1ccccc1.N [MD-1-119, Ammonium 3-((11-(phenylthio)undecyl)thio)propyl (R)-(((1-(6-amino-9H-purin-9-yl)propan-2-yl)oxy)methyl)phosphonate]	36.3	11			0.2	
C[C@H](Cn1cnc2c(N)ncnc21)OCP(=O)(O)OCCCOCCCCCCCCCCCCCCCC(F)(F)F.N [NP-PD-158, Ammonium [(1R)-2-(6-aminopurin-9-yl)-1-methyl-ethoxy]methyl-[3-(16,16,16-trifluorohexadecoxy)propoxy]phosphinate]	> 20	> 20	>2	> 100		
C[C@H](Cn1cnc2c(N)ncnc21)OCP(=O)(O)OCCCOCCCCCCCCCCCCCC#CC(F)(F)F.N [NP-PD-149, Ammonium [(1R)-2-(6-aminopurin-9-yl)-1-methyl-ethoxy]methyl-[3-(16,16,16-trifluorohexadec-14-ynoxy)propoxy]phosphinate]	> 20	12	>2	> 100		
C[C@H](Cn1cnc2c(N)ncnc21)OCP(=O)(O)OCCCCCCCCCCCCCCCCCC[Si](C)(C)C.N [NP-PD-051, Ammonium [(1R)-2-(6-aminopurin-9-yl)-1-methyl-ethoxy]methyl-(18-trimethylsilyloctadecoxy)phosphinate]	16.4	51.4			> 2	
C[C@H](Cn1cnc2c(N)ncnc21)OCP(=O)(O)OCCCCCCCCCCCCCCCCC#C[Si](C)(C)C.N [NP-PD-042, Ammonium [(1R)-2-(6-aminopurin-9-yl)-1-methyl-ethoxy]methyl-(18-trimethylsilyloctadec-17-ynoxy)phosphinate]	27.1	27	>2	68.1		
CCCCCCCCCCCCCCCCSCCCOP(=O)(O)CO[C@H](C)Cn1cnc2c(N)ncnc21 [MD-1-123, Ammonium 3-(hexadecylthio)propyl (R)-(((1-(6-amino-9H-purin-9-yl)propan-2-yl)oxy)methyl) phosphonate]	110	58			0.7	
C[C@H](Cn1cnc2c(N)ncnc21)OCP(=O)(O)O [TFV, tenofovir, reference compound]	> 50	45.8	>2			2.06 µM and 1.6 µM

Source: patent US12049474B2, “Nucleoside prodrugs and uses related thereto” (Emory University, priority 2019, dated 2024)
